Measured values reported in publication PMC5454391, “Improving 10-deacetylbaccatin III-10-β-O-acetyltransferase catalytic fitness for Taxol production” (Nature Communications, 2017).
Where a chain is given by its changes, count along the chain named.

Key:
Assay type in all cases: biochemical
[1] = molecular target: T1, DBAT of T. wallichiana var. (Taxus mairei, UniProt B5KRG1); assay: HPLC of Taxol formed; conditions: 500 μM acetyl-CoA, 50 mM sodium acetate pH 5.5, […], 180 min
T1 sequence (B5KRG1 1-440): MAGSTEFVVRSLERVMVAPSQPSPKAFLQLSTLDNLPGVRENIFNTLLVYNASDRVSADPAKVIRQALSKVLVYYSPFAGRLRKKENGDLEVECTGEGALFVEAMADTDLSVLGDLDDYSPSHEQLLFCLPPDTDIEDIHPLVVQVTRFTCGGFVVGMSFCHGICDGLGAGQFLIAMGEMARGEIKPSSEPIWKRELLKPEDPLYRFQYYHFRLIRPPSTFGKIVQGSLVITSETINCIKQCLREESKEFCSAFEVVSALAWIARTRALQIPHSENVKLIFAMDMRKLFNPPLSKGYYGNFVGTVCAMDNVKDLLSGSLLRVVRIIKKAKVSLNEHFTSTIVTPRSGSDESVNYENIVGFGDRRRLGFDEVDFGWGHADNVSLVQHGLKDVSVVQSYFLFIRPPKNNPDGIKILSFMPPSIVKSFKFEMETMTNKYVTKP

[2] = molecular target: T2, DBAT of T. x media (Taxus x media, UniProt Q6SQJ5); assay: HPLC of Taxol formed; conditions: 500 μM acetyl-CoA, 50 mM sodium acetate pH 5.5, […], 180 min
T2 sequence (Q6SQJ5 1-440): T1 sequence (B5KRG1 1-440) with A58V, H123L, M158V, R213Q, R216C, V352I

[3] = molecular target: T3, DBAT of T. brevifolia (Taxus brevifolia, UniProt B5KRG4); assay: HPLC of Taxol formed; conditions: 500 μM acetyl-CoA, 50 mM sodium acetate pH 5.5, […], 180 min
T3 sequence (B5KRG4 1-440): T1 sequence (B5KRG1 1-440) with A52T, H123L, M158V, R216H, S219T, V352M, L383I, S415L, M417L

[4] = molecular target: T4, DBAT of T. canadensis (Taxus canadensis, UniProt B5KRF5); assay: HPLC of Taxol formed; conditions: 500 μM acetyl-CoA, 50 mM sodium acetate pH 5.5, […], 180 min
T4 sequence (B5KRF5 1-440): T1 sequence (B5KRG1 1-440) with V9L, H123L, M158V, S228F, S294L, V352I, V422M

[5] = molecular target: T4, DBAT of T. canadensis; assay: HPLC of baccatin III formed; conditions: 500 μM acetyl-CoA, 50 mM sodium acetate pH 5.5, 40 °C, 20 min
[6] = molecular target: T1, DBAT of T. wallichiana var.; assay: HPLC of baccatin III formed; conditions: 500 μM acetyl-CoA, 50 mM sodium acetate pH 5.5, 40 °C, 20 min
[7] = molecular target: T2, DBAT of T. x media; assay: HPLC of baccatin III formed; conditions: 500 μM acetyl-CoA, 50 mM sodium acetate pH 5.5, 40 °C, 20 min

SMILES: CC(=O)O[C@@]12CO[C@@H]1C[C@H](O)[C@@]1(C)C(=O)[C@H](O)C3=C(C)[C@@H](OC(=O)[C@H](O)[C@@H](NC(=O)c4ccccc4)c4ccccc4)C[C@@](O)([C@@H](OC(=O)c4ccccc4)[C@H]21)C3(C)C [compound 2, DT]
- HPLC of Taxol formed [1]: all other recombinant enzymes exhibited acetylation activity against 10-DAB and DT
- HPLC of Taxol formed [2]: all other recombinant enzymes exhibited acetylation activity against 10-DAB and DT
- HPLC of Taxol formed [3]: the DBATs of T. cuspidata and T. brevifolia showed the highest specific activities
- HPLC of Taxol formed [4]: all other recombinant enzymes exhibited acetylation activity against 10-DAB and DT

SMILES: CC(=O)O[C@@]12CO[C@@H]1C[C@H](O)[C@@]1(C)C(=O)[C@H](O)C3=C(C)[C@@H](O)C[C@@](O)([C@@H](OC(=O)c4ccccc4)[C@H]21)C3(C)C [compound 1, 10-DAB]
- HPLC of baccatin III formed [5]: all other recombinant enzymes exhibited acetylation activity against 10-DAB and DT
- HPLC of baccatin III formed [6]: all other recombinant enzymes exhibited acetylation activity against 10-DAB and DT
- HPLC of baccatin III formed [7]: T. x media origins showed similar conversion rates for 10-DAB
